Measurements taken from patent publication US11839683B2, “Method of rapidly achieving therapeutic concentrations of triptans for treatment of migraines” (EMERGEX USA CORPORATION, priority 2016, dated 2023).
Like-named read-outs stand apart in the source and are kept apart here. One block for each compound: values may come before it.

Legend:
[1] = system: migraine; details: cited from earlier work
[2] = in vivo
Excerpt: (§1) This was a single-center, open-label, randomized five-way crossover study (Part 1) followed by a sequential study of two additional treatments (Parts 2 and 3). After obtaining informed consent and establishing eligibility, each subject received each of the seven study treatments once, followed by in-clinic monitoring and extensive blood sample collection for pharmacokinetic analysis. […] Plasma samples from the initial dosing days were sent to the analytical laboratory for analysis, and tolerability for each of the dose levels was summarized. […] During Part 3, subjects received a single 3.8 mg patch (applied with a 0.52 J applicator) and also completed identical procedures to the previous dosing days. After completion of the seven dosing days, subjects were assessed one final time and dismissed from the study.
(§2) PK parameters were summarized by treatment group using descriptive statistics (arithmetic means, standard deviations, coefficients of variation, sample size, minimum, maximum, and median).

[3] = clinical; details: human, in vivo
Method: The final treatment administered was 3.8 mg on a 10 cm^2 patch using an applicator with 0.52 Joule of application energy in the intracutaneous microneedle system described herein. The products tested were:
as §1
Twenty subjects were enrolled in the study, 10 males and 10 females. The subjects mean age was 29 years±3.5 years with a mean BMI of 24.4±3.5.
as §2
Graphs of apparent dose linearity and proportionality of PK parameters (AUCt, AUCinf and Cmax) were compiled.

[4] = cited from earlier work
[5] = TABLET 80 mg, 1 hour, Sheftell et al 2003
[6] = TABLET 80 mg, 2 hour, Sheftell et al 2003
[7] = TABLET 80 mg, 4 hour, Sheftell et al 2003
[8] = TABLET 10 mg, 1 hour, Tfelt-Hansen et al, 1998
[9] = TABLET 10 mg, 2 hour, Tfelt-Hansen et al, 1998
[10] = WAFER 5 mg, 1 hour, Ahrens et al, 1999
[11] = WAFER 5 mg, 2 hour, Ahrens et al, 1999
[12] = WAFER 10 mg, 1 hour, Ahrens et al, 1999
[13] = WAFER 10 mg, 2 hour, Ahrens et al, 1999
[14] = TABLET 100 mg, 1 hour, Tfelt-Hansen et al, 1998
[15] = TABLET 100 mg, 2 hour, Tfelt-Hansen et al, 1998
[16] = TABLET 2.5 mg, 1 hour, Bomhof et al, 1999
[17] = TABLET 2.5 mg, 2 hour, Bomhof et al, 1999

SMILES: CN1CCC[C@@H]1Cc1c[nH]c2ccc(CCS(=O)(=O)c3ccccc3)cc12 [Eletriptan]
- % PAIN FREE [1, 5]: 10.0%
- % PAIN RELIEF [1, 5]: 32.0%
- % PAIN FREE [1, 6]: 27.0%
- % PAIN RELIEF [1, 6]: 59.0%
- % PAIN FREE [1, 7]: 49.0%
- % PAIN RELIEF [1, 7]: 79.0%

SMILES: CNCCc1c[nH]c2ccc(C[C@H]3COC(=O)N3)cc12 [N-desmethyl zolmitriptan]
- Mean AUCinf of N-desmethyl metabolite ([2]; human): 14.55 ng·H/mL
- Mean Cmax of N-desmethyl metabolite ([2]; human): 2.08 ng/mL
- Tmax of N-desmethyl metabolite ([2]; human): 54.7 to 65.0 min
- Mean AUCinf of N-desmethyl metabolite ([2]; human, 0.48 mg): 1.38 ng·H/mL
- Mean Cmax of N-desmethyl metabolite ([2]; human, 0.48 mg): 0.22 ng/mL
- Mean AUCinf of N-desmethyl metabolite ([2]; human, 3.8 mg): 8.17 ng·H/mL
- Mean Cmax of N-desmethyl metabolite ([2]; human, 3.8 mg): 1.77 ng/mL
- elimination half life (t1/2) of the metabolite ([2]; human, po): 2.7-3.31 H
- time to peak plasma concentration of the N-desmethyl metabolite [2]: around 1 hour
- time to peak plasma concentration of the N-desmethyl metabolite ([2]; po): 2.7 h

- AUC0-last/Dose ([3]; po, 2.5 mg): 8.6
- Tmax Med (Range) ([3]; po, 2.5 mg): 60 (30-240)
SMILES: CN(C)CCc1c[nH]c2ccc(C[C@H]3COC(=O)N3)cc12 [Oral Zolmi]

SMILES: CN(C)CCc1c[nH]c2ccc(Cn3cncn3)cc12 [Rizatriptan]
- % PAIN FREE [1, 8]: 10.4%
- % PAIN RELIEF [1, 8]: 36.6%
- % PAIN FREE [1, 9]: 40.3%
- % PAIN RELIEF [1, 9]: 67.0%
- % PAIN FREE [1, 10]: 7.7%
- % PAIN RELIEF [1, 10]: 39.8%
- % PAIN FREE [1, 11]: 34.8%
- % PAIN RELIEF [1, 11]: 58.6%
- % PAIN FREE [1, 12]: 13.0%
- % PAIN RELIEF [1, 12]: 44.9%
- % PAIN FREE [1, 13]: 42.2%
- % PAIN RELIEF [1, 13]: 74.1%

- Tmax Med (Range) ([3]; sc, 6 mg): 10 (5-20)
SMILES: CNS(=O)(=O)Cc1ccc2[nH]cc(CCN(C)C)c2c1 [SC Suma]

SMILES: CNS(=O)(=O)Cc1ccc2[nH]cc(CCN(C)C)c2c1 [Sumatriptan, sumatriptan]
- % PAIN FREE [1, 14]: 7.8%
- % PAIN RELIEF [1, 14]: 27.9%
- % PAIN FREE [1, 15]: 32.8%
- % PAIN RELIEF [1, 15]: 61.8%
- Tmax after oral tablet administration ([4]; oral tablet): about 2 hours
- bioavailability, oral administration (as a succinate) ([4]; oral): about 15%
- Tmax achieved earlier than the conventional tablet ([4]; rapid-release tablet formulation, on average): 10 to 15 min

SMILES: CN[C@@H]1CCc2[nH]c3ccc(C(N)=O)cc3c2C1 [frovatriptan]
- efficacy in 2-hour response, 2-hour pain free compared to the other triptans ([1]; oral): lowest efficacy

SMILES: CNS(=O)(=O)CCc1ccc2[nH]cc(C3CCN(C)CC3)c2c1 [naratriptan]
- % PAIN FREE [1, 16]: 3.3%
- % PAIN RELIEF [1, 16]: 27.7%
- % PAIN FREE [1, 17]: 20.7%
- % PAIN RELIEF [1, 17]: 48.4%
- pain freedom at 2 hours ([1]; lowest oral dose): 18%
- pain relief at 2 hours ([1]; lowest oral dose): 49%
